Reference: US20020035061A1, “COMPOSITIONS AND METHODS FOR TREATING INFECTIONS USING CATIONIC PEPTIDES ALONE OR IN COMBINATION WITH ANTIBIOTICS” (priority 1996, published 2002)
Where two headings read alike, the source gives them in different places.

What was measured:
[1] = test system: MSSA (Smith, ATCC # 19640); test: In vivo efficacy, MSSA infection; design: species or system S. aureus; settings: formulation D, 60 min post-infection, end of eight day observation
[2] = test system: vancomycin / teicoplanin resistant enterococci; test: microbe, parasite or virus in culture; type: cell-based; settings: for Peptide MIC Alone: Vancomycin section; for FIC: peptide + Vancomycin
A. calcoaceticus = type: cell-based; settings: A. calcoaceticus AC002
E. coli = type: cell-based; settings: for Peptide MIC values: agarose dilution
E. cloacae = type: cell-based; settings: E. cloacae ECL007
P. aeruginosa = type: cell-based; settings: for Peptide MIC values: agarose dilution
S. marcescens = type: cell-based; settings: for Peptide MIC values: agarose dilution
E. faecium = type: cell-based
[3] = test system: microorganisms with acquired resistance; test: microbe, parasite or virus in culture; type: cell-based; settings: S. aureus; combination with Mupirocin; in µg/mL
S. maltophilia = type: cell-based; settings: S. maltophilia SMA002
S. pneumoniae = test: Agarose dilution assay (MIC); type: cell-based; settings: for Peptide MIC values: agarose dilution
E. faecalis = type: cell-based; settings: E. faecalis EFS002
[4] = test system: inherently resistant microorganisms; test: microbe, parasite or virus in culture; type: cell-based; settings: for FIC: peptide + Tobramycin

In the case of ILKKFPFFPFRRK [MBI 11A1CN], the “% Survival” value ([1]; 12 mg/kg ip) is reported as 0%, the “% Survival” value ([1]; 18 mg/kg ip) is reported as 0% and the “% Survival” value ([1]; 24 mg/kg ip) is reported as 0%. For the same sequence, the “Peptide MIC + Vancomycin” value ([2]; E. faecalis EFS003) was 32 µg/mL, the “Vancomycin MIC + Peptide” value ([2]; E. faecalis EFS003) was 4 µg/mL and the “Peptide MIC Alone” value ([2]; E. faecalis EFS003) was over 128 µg/mL. The “Peptide MIC + Vancomycin” value ([2]; E. faecalis EFS006) was 0.25 µg/mL, the “Vancomycin MIC + Peptide” value ([2]; E. faecalis EFS006) was 4 µg/mL and the “Peptide MIC Alone” value ([2]; E. faecalis EFS006) was 128 µg/mL. The “Peptide MIC + Vancomycin” value ([2]; E. faecalis EFS010) was 8 µg/mL, the “Vancomycin MIC + Peptide” value ([2]; E. faecalis EFS010) was 1 µg/mL and the “Peptide MIC Alone” value ([2]; E. faecalis EFS010) was 128 µg/mL. The “Peptide MIC + Vancomycin” value ([2]; E. faecalis EFS014) was 2 µg/mL, the “Vancomycin MIC + Peptide” value ([2]; E. faecalis EFS014) was 1 µg/mL and the “Peptide MIC Alone” value ([2]; E. faecalis EFS014) was 4 µg/mL. The “Peptide MIC + Vancomycin” value ([2]; E. faecium EFM004) was 16 µg/mL, the “Vancomycin MIC + Peptide” value ([2]; E. faecium EFM004) was 0.5 µg/mL and the “Peptide MIC Alone” value ([2]; E. faecium EFM004) was 32 µg/mL. For the same sequence, the “Peptide MIC + Vancomycin” value ([2]; E. faecium EFM007) was 16 µg/mL, the “Vancomycin MIC + Peptide” value ([2]; E. faecium EFM007) was 4 µg/mL and the “Peptide MIC Alone” value ([2]; E. faecium EFM007) was 64 µg/mL. For the same sequence, the “Peptide MIC + Vancomycin” value ([2]; E. faecium EFM009) was 8 µg/mL, the “Vancomycin MIC + Peptide” value ([2]; E. faecium EFM009) was 4 µg/mL and the “Peptide MIC Alone” value ([2]; E. faecium EFM009) was 64 µg/mL. It also gave an FIC ([2]; E. faecalis EFS003) of 0.63, an FIC ([2]; E. faecalis EFS006) of 0.50 and an FIC ([2]; E. faecalis EFS010) of 0.13. The FIC ([2]; E. faecalis EFS014) was 0.51, the FIC ([2]; E. faecium EFM004) was 0.50 and the FIC ([2]; E. faecium EFM007) was 0.28. For the same sequence, the FIC ([2]; E. faecium EFM009) was 0.25, the MIC (A. calcoaceticus) was 16 µg/mL and the MIC (E. coli; E. coli ECO002) was 32 µg/mL. The “Peptide MIC values” (E. coli; E. coli ATCC 25922) was 128 µg/mL, the “Peptide MIC values” (E. coli; E. coli ESS) was 16 µg/mL and the “Peptide MIC values” (E. coli; E. coli NCTC 10418) was 16 µg/mL. The MIC (E. cloacae) was over 128 µg/mL, the MIC (P. aeruginosa; P. aeruginosa PA004) was over 128 µg/mL and the “Peptide MIC values” (P. aeruginosa; P. aeruginosa ATCC 27853) was over 128 µg/mL. For the same sequence, the “Peptide MIC values” (P. aeruginosa; P. aeruginosa NCTC 10662) was over 128 µg/mL, the MIC (S. marcescens; S. marcescens SBSM2) was over 128 µg/mL and the “Peptide MIC values” (S. marcescens; S. marcescens SM76) was over 128 µg/mL. The “Peptide MIC values” (S. marcescens; S. marcescens SM82) was over 128 µg/mL, the MIC (E. faecium; E. faecium EFM002) was 1 µg/mL and the “Peptide MIC values” (E. faecium; agarose dilution) was 128 µg/mL. For the same sequence, the “Peptide MIC” value [3] was 32, the MIC (S. maltophilia) was over 128 µg/mL and the MIC (S. pneumoniae; S. pneumoniae SBSPN2) was over 128 µg/mL. For the same sequence, the “Peptide MIC values” (S. pneumoniae; S. pneumoniae 406LE8) was over 128 µg/mL, the “Peptide MIC values” (S. pneumoniae; S. pneumoniae 60120) was over 128 µg/mL and the “Peptide MIC values” (S. pneumoniae; S. pneumoniae ATCC 49619) was over 128 µg/mL. The MIC (E. faecalis) was 32 µg/mL, the “Peptide MIC + Tobramycin” value ([4]; S. haemolyticus) was 0.125 µg/mL and the “Peptide MIC Alone” value ([4]; S. haemolyticus, Tobramycin section) was 16 µg/mL. It also gave an FIC ([4]; S. aureus) of 0.50 and an FIC ([4]; S. haemolyticus) of 0.51.
